# Experimental data: patent US10179790B2 (THOMAS HELLEDAYS STIFTELSE FOR MEDICINSK FORSKNING, priority 2014, dated 2019)
# Target: MTH1 (Homo sapiens, UniProt P36639)
# Experiment: MTH1 enzymatic assay and IC50 value determination (malachite green, 96- and 384-well format)
# Type: biochemical
# Conditions: hydrolysis of dGTP (100 μM), MTH1 6 nM, pyrophosphatase-coupled malachite green, 15 minutes at 22° C.
# Description: MTH1 Enzymatic Assay and IC50 Value Determination
# MTH1 catalyzes the hydrolysis of dGTP to dGMP and PPi. By coupling the reaction to pyrophosphatase added in excess PPi is converted to Pi that can be detected by using the malachite green assay reagent. Two different formats were used for IC50 determinations in the enzymatic assay, 96- and 384-well format. 96-Well Method:
# Briefly, the compound to be analyzed is diluted in DMSO in a 1:3 dilution series generating 12 different compound concentrations giving a final DMSO concentration of 1% in the assay well. MTH1 diluted in assay buffer (100 mM Tris-acetate, 40 mM NaCl, 10 mM magnesium acetate, 1 mM DTT and 0.005% Tween 20) fortified with E. coli pyrophosphatase (0.2 U/ml) is added to a final concentration of 6 nM. dGTP diluted in assay buffer is added to a final concentration of 100 μM. The reaction mixture is incubated for 15 minutes at 22° C. To 100 μl reaction mixture, 25 μl Malachite green assay regent (0.095% Malachite green in 17% H2SO4, 1.5% Ammonium molybdate, 0.17% Tween 20) is added, followed by incubation with shaking for 15 minutes at 22° C. The absorbance of the assay plate is read at 630 nm using a Hidex Sense Multilabel plate reader. The IC50 value is determined by fitting a dose response curve to the data points using nonlinear regression analysis and the equation Y=Bottom+(Top−Bottom)/(1+10^((Log IC50−X)*HillSlope)), where Y is the read absorbance at 630 nm and X is log [compound].
# The compounds to be tested are nano-dispensed, in 11 concentrations, directly in assay plates, with a final DMSO concentration <1%. The protocol and the reaction mixture are the same as for the 96-well assay, with a total reaction volume of 50 μl/well to which 10 μl of Malachite green reagent is added. All additions to the assay plates are made with multidrop.
row,IC50 [nM],SMILES
1,< 200,"Cc1c(Cl)cccc1-c1cc(N[C@H]2C[C@@H]2c2ccc(S(N)(=O)=O)cc2)nc(N)n1 [Example 15, 4-[(1R,2S)-2-{[2-amino-6-(3-chloro-2-methylphenyl)pyrimidin-4-yl]amino}cyclopropyl]benzene-1-sulfonamide]"
2,< 200,"CC(C)(C)OC(=O)NCc1ccc(-c2cc(NCCc3ccc(S(C)(=O)=O)cc3)nc(N)n2)s1 [Example 18, tert-butyl N-{[5-(2-amino-6-{[2-(4-methanesulfonylphenyl)ethyl]amino}pyrimidin-4-yl)thiophen-2-yl]methyl}carbamate]"
3,< 200,"Nc1nc(NCCc2ccc(S(N)(=O)=O)cc2)cc(-c2cccc(O)c2)n1 [Example 27, 4-(2-{[2-amino-6-(3-hydroxyphenyl)pyrimidin-4-yl]amino}ethyl)benzene-1-sulfonamide]"
4,< 200,"Nc1nc(NCCc2ccc(S(N)(=O)=O)cc2)cc(-c2cccc(OS(=O)(=O)C(F)(F)F)c2)n1 [Example 33, 3-(2-amino-6-{[2-(4-sulfamoylphenyl)ethyl]amino}pyrimidin-4-yl)phenyl trifluoromethanesulfonate]"
5,< 200,"Cc1cccc(-c2cc(NCCc3ccc(C(=O)O)cc3)nc(N)n2)c1C [Example 34, 4-(2-{[2-amino-6-(2,3-dimethylphenyl)pyrimidin-4-yl]amino}ethyl)benzoic acid]"

# The remaining lines, values behind:
row,SMILES,IC50 [nM]
1,"Cc1ccc(-c2cc(NCCc3ccc(S(N)(=O)=O)cc3)nc(N)n2)o1 [Example 4, 4-(2-{[2-amino-6-(5-methylfuran-2-yl)pyrimidin-4-yl]amino}ethyl)benzene-1-sulfonamide]",< 200
2,"Cc1cccc(-c2cc(NCCNc3ccc(C(N)=O)cn3)nc(N)n2)c1C [Example 5, 6-[(2-{[2-amino-6-(2,3-dimethylphenyl)pyrimidin-4-yl]amino}ethyl)amino]pyridine-3-carboxamide]",< 200
3,"CSc1ccc(NC(=O)NCCCCNc2cc(-c3cccc(Cl)c3Cl)nc(N)n2)cc1 [Example 6, 3-(4-{[2-amino-6-(2,3-dichlorophenyl)pyrimidin-4-yl]amino}butyl)-1-[4-(methylsulfanyl)phenyl]urea]",< 200
4,"C[S+]([O-])c1ccc(NC(=O)NCCCCNc2cc(-c3cccc(Cl)c3Cl)nc(N)n2)cc1 (stereo not drawn) [Example 7, 3-(4-{[2-amino-6-(2,3-dichlorophenyl)pyrimidin-4-yl]amino}butyl)-1-(4-methanesulfinylphenyl)urea]",< 200
5,"Cc1cc(-c2cc(NCCNc3ccc([N+](=O)[O-])cn3)nc(N)n2)c(C)cc1F [Example 8, 6-(4-fluoro-2,5-dimethylphenyl)-4-N-{2-[(5-nitropyridin-2-yl)amino]ethyl}pyrimidine-2,4-diamine]",< 200
6,"Cc1c(Cl)cccc1-c1cc(NCCc2ccc(C(=O)O)cc2)nc(N)n1 [Example 9, 4-(2-{[2-amino-6-(3-chloro-2-methylphenyl)pyrimidin-4-yl]amino}ethyl)benzoic acid]",< 200
7,"CC(=O)c1sccc1-c1cc(NCCc2ccc(S(N)(=O)=O)cc2)nc(N)n1 [Example 10, 4-(2-{[6-(2-acetylthiophen-3-yl)-2-aminopyrimidin-4-yl]amino}ethyl)benzene-1-sulfonamide]",< 200
8,"CC(=O)Nc1ccc(NCCNc2cc(-c3cc(C)c(F)cc3C)nc(N)n2)nc1 [Example 11, N-{6-[(2-{[2-amino-6-(4-fluoro-2,5-dimethylphenyl)pyrimidin-4-yl]amino}ethyl)amino]pyridin-3-yl}acetamide]",< 200
9,"Cc1cc(-c2cc(NCCNc3ccc(NS(C)(=O)=O)cn3)nc(N)n2)c(C)cc1F [Example 12, N-{6-[(2-{[2-amino-6-(4-fluoro-2,5-dimethylphenyl)pyrimidin-4-yl]amino}ethyl)amino]pyridin-3-yl}methanesulfonamide]",< 200
10,"Cc1cccc(-c2cc(NCCNc3cncc(S(N)(=O)=O)c3)nc(N)n2)c1C [Example 14, 5-[(2-{[2-amino-6-(2,3-dimethylphenyl)pyrimidin-4-yl]amino}ethyl)amino]pyridine-3-sulfonamide]",< 200
